Values after ≈ are worked out from the molar mass of the structure shown. Structures can show the parent of a compound that is named as a salt. Where two headings read alike, the source gives them in different places.
Tests used:
[1] = system: PSEUDOMONAS CEPACIA 296I; experiment: In vitro MIC, agar dilution (BHIA); format: cell-based
[2] = system: PSEUDOMONAS AERUGINOSA K799/WT; experiment: In vitro MIC, agar dilution (BHIA); format: cell-based
[3] = system: MICROCOCCUS LUTEUS ATCC 9341; experiment: In vitro MIC, agar dilution (BHIA); format: cell-based
[4] = system: STREPTOCOCCUS BOVIS A5169; experiment: In vitro MIC, agar dilution (BHIA); format: cell-based
[5] = system: ACINETOBACTER SP CMX 669; experiment: In vitro MIC, agar dilution (BHIA); format: cell-based
[6] = system: STREPTOCOCCUS PYOGENES EES61; experiment: In vitro MIC, agar dilution (BHIA); format: cell-based
[7] = system: KLEBSIELLA PNEUMONIAE ATCC 8045; experiment: In vitro MIC, agar dilution (BHIA); format: cell-based
[8] = system: STREPTOCOCCUS PYOGENES 930 CONST; experiment: In vitro MIC, agar dilution (BHIA); format: cell-based
[9] = system: PROVIDENCIA STUARTII CMX 640; experiment: In vitro MIC, agar dilution (BHIA); format: cell-based
[10] = system: E. Coli Juhl; experiment: Acute mouse protection test; format: in vivo; settings: mice infected i.p. with E. Coli JUHL, observed 7 days; for SC (ED50): SC dosing at 1 and 5 hours post-infection; for Oral (ED50): oral dosing at 1 and 5 hours post-infection
[11] = system: Stap. Aureus NCTC 10649; experiment: Acute mouse protection test; format: in vivo; settings: mice infected i.p. with Stap. Aureus NCTC 10649, observed 7 days; for SC (ED50): SC dosing at 1 and 5 hours post-infection; for Oral (ED50): oral dosing at 1 and 5 hours post-infection
[12] = system: PSEUDOMONAS AERUGINOSA BMH10; experiment: In vitro MIC, agar dilution (BHIA); format: cell-based
[13] = system: STREPTOCOCCUS PYOGENES 2548 INDUC; experiment: In vitro MIC, agar dilution (BHIA); format: cell-based
[14] = system: MICROCOCCUS LUTEUS ATCC 4698; experiment: In vitro MIC, agar dilution (BHIA); format: cell-based
[15] = system: STREPTOCOCCUS AGALACTIAE CMX 508; experiment: In vitro MIC, agar dilution (BHIA); format: cell-based
[16] = system: PSEUDOMONAS AERUGINOSA K799/61; experiment: In vitro MIC, agar dilution (BHIA); format: cell-based
[17] = system: PSEUDOMONAS AERUGINOSA A5007; experiment: In vitro MIC, agar dilution (BHIA); format: cell-based
[18] = system: ESCHERICHIA COLI H560; experiment: In vitro MIC, agar dilution (BHIA); format: cell-based
Description: (§1) The MIC results are in ug/ml.

[19] = system: ESCHERICHIA COLI SS; experiment: In vitro MIC, agar dilution (BHIA); format: cell-based
Description: as §1

[20] = system: P. Aeruginosa A5007; experiment: Acute mouse protection test; format: in vivo; settings: mice infected i.p. with P. Aeruginosa A5007, observed 7 days; for SC (ED50): SC dosing at 1 and 5 hours post-infection; for Oral (ED50): oral dosing at 1 and 5 hours post-infection
[21] = system: ESCHERICHIA COLI JUHL; experiment: In vitro MIC, agar dilution (BHIA); format: cell-based
[22] = system: ENTEROBACTER AEROGENES ATCC 13048; experiment: In vitro MIC, agar dilution (BHIA); format: cell-based
[23] = system: ENTEROCOCCUS FAECIUM ATCC 8043; experiment: In vitro MIC, agar dilution (BHIA); format: cell-based
[24] = Conversion of prodrug to parent drug in whole blood at 37° C.; format: in vitro ADME, Dog
Method: (§2) An aqueous solution of prodrug (Z) is spiked into fresh whole blood containing sodium heparin as an anticoagulant. The sample is mixed gently by inversion and placed in a 37° waterbath. At selected time intervals an 0.5 ml aliquot of blood is removed and placed in a chilled 1.5 ml centrifuge tube (ice temperature). Samples are centrifuges at 13,000 rpm for two minutes to separate plasma. An 0.2 ml aliquot of the plasma sample is combined with 0.2 ml internal standard (7-(4-amino-2-methyl-1-pyrrolidinyl)-1-(2,4-difluorophenyl)-6-fluoro-1,4-d ihydro-4-oxo-1,8-naphthyridine-3-carboxylic acid in 0.2M sodium phosphate pH 7.2 buffer) and 6 mls CH2 Cl2 :EtoH (9:1 by volume). Samples are capped and shaken gently for 10 minutes. Samples are centrifuges at 2500 rpm for 10 minutes (4° C.). The aqueous layer is aspirated to waste and the organic layer is transferred to a conical centrifuge tube and evaporated to dryness with a stream of dry air and low heat ([…]). Samples are reconstituted with 0.2 ml mobile phase followed by vortexing. Samples are centrifuges at 2500 rpm for 10 minutes to separate precipitate. The supernatant is transferred to a WISP vial with plastic insert for HPLC analysis.

[25] = system: ESCHERICHIA COLI KNK 437; experiment: In vitro MIC, agar dilution (BHIA); format: cell-based
[26] = Conversion of prodrug to parent drug in whole blood at 37° C.; format: in vitro ADME, Human
Method: as §2

[27] = Conversion of prodrug to parent drug in whole blood at 37° C.; format: in vitro ADME, Rat
Method: as §2

[28] = system: ESCHERICHIA COLI DC-2; experiment: In vitro MIC, agar dilution (BHIA); format: cell-based
Description: as §1

[29] = Solubility in water and at pH 7.4; settings: for Water Solubility: the sign > refers to an approximate value and the solubility may be within 10% higher
[30] = Plasma level in dog after oral dose; settings: 10 mg equivalent/kg oral dose, HPLC
Description: The plasma samples were collected and determined by the HPLC analysis.

[31] = STREPTOCOCCUS AGALACTIAE CMX 508

Row | Compound | MIC [1] [µg/mL] | MIC [2] [µg/mL] | MIC [3] [µg/mL] | MIC [5] [µg/mL] | MIC [7] [µg/mL] | MIC [8] | MIC [9] [µg/mL] | SC (ED50) [10] [mg/kg/day] | Oral (ED50) [10] [mg/kg/day] | SC (ED50) [11] [mg/kg/day] | Oral (ED50) [11] [mg/kg/day] | MIC [12] [µg/mL] | MIC [13] | MIC [14] | MIC [16] [µg/mL] | MIC [17] [µg/mL] | MIC [18] [µg/mL] | MIC [19] | SC (ED50) [20] [mg/kg/day] | Oral (ED50) [20] [mg/kg/day] | also measured
1 | NCC(=O)N[C@@H](Cc1ccccc1)C(=O)NC1CCN(c2nc3c(cc2F)c(=O)c(C(=O)O)cn3-c2ccc(F)cc2F)C1 (stereo partly drawn) [Example 1b, 7-[(3-Gly-L-Phe-amino)-1-pyrrolidinyl]-1-(2,4-difluorophenyl)-6-fluoro-1,4-dihydro-4-oxo-1,8-naphthyridine-3-carb oxylic acid hydrochloride] | 50 | 25 | 6.25 | 12.5 | 12.5 | .78 µg/mL | 100 | 0.6 | 1.8 | 0.5 | 0.7 | 25 | .78 µg/mL | .78 µg/mL | 12.5 | 25 | 1.56 | .2 µg/mL | 8.0 | 27.3 | MIC ([4]; STR[…] A5169): 1.56 µg/mL; MIC ([6]; STR[…] EES61): 1.56 µg/mL; MIC ([15]; STR[…] 508): 1.56 µg/mL
2 | CC(N)C(=O)NC(C)C(=O)NC1CCN(c2nc3c(cc2F)c(=O)c(C(=O)O)cn3-c2ccc(F)cc2F)C1 (stereo not shown) [Example 15] | 50 (≈ 91.5 µM) | 50 (≈ 91.5 µM) | > 100 | 12.5 (≈ 22.9 µM) | 12.5 (≈ 22.9 µM) | 12.5 µg/mL (≈ 22.9 µM) | 100 (≈ 183 µM) | 0.5 | 2.0 | 0.8 | 1.3 | 100 (≈ 183 µM) | 12.5 µg/mL (≈ 22.9 µM) | 100 µg/mL (≈ 183 µM) | 3.1 (≈ 5.67 µM) | 100 (≈ 183 µM) | 6.2 (≈ 11.3 µM) | .39 µg/mL (≈ 0.714 µM) | 3.1 | 9.1 | MIC [21]: 12.5 µg/mL (≈ 22.9 µM); MIC [22]: 25 µg/mL (≈ 45.7 µM); MIC [23]: 50 µg/mL (≈ 91.5 µM); Half Life Dog [24]: 2.4 m; MIC ([4]; STREPTOCOCCUS BOVIS A5169): 50 µg/mL (≈ 91.5 µM); MIC [25]: 50 µg/mL (≈ 91.5 µM); MIC ([6]; STREPTOCOCCUS PYOGENES EES61): 12.5 µg/mL (≈ 22.9 µM); Half Life Human [26]: 3.0 m; MIC [15, 31]: 12.5 µg/mL (≈ 22.9 µM); Solubility pH 7.4: 1.07 mg/ml; Half Life Rat [27]: 84.8 s; MIC [28]: 100 µg/mL (≈ 183 µM)
3 | CCC[C@H](NC(=O)[C@H](C)N)C(=O)NC1CCN(c2nc3c(cc2F)c(=O)c(C(=O)O)cn3-c2ccc(F)cc2F)C1 (stereo partly shown) [Example 55b, 7-(3-Ala-Nval-amino-1-pyrrolidinyl)-6-fluoro-1-(2,4-difluorophenyl)-1,4-di hydro-4-oxo-1,8-naphthyridine-3-carboxylic acid] |  |  |  |  |  |  |  |  |  |  |  |  |  |  |  |  |  |  |  |  | Half Life Dog ([24]; conversion to parent drug in dog whole blood at 37° C., seconds): 118.0 s; Half Life Human ([26]; conversion to parent drug in human whole blood at 37° C., seconds): 88.0 s; Solubility pH 7.4 [29]: 1.03 mg/ml; Water Solubility [29]: 26 mg/mL; Half Life Rat ([27]; conversion to parent drug in rat whole blood at 37° C., seconds): 33.2 s; AUC (0-32h) [30]: 15.4
4 | NC(Cc1ccccc1)C(=O)NC1CCN(c2nc3c(cc2F)c(=O)c(C(=O)O)cn3-c2ccc(F)cc2F)C1 (stereo not shown) [Example 5] | > 100 | 25 (≈ 45.3 µM) | 25 (≈ 45.3 µM) | 12.5 (≈ 22.7 µM) | 1.56 (≈ 2.83 µM) |  | > 100 | 0.7 | 3.5 | 1.0 | 3.6 | 25 (≈ 45.3 µM) | .78 µg/mL (≈ 1.41 µM) | 12.5 µg/mL (≈ 22.7 µM) | 1.56 (≈ 2.83 µM) | 50 (≈ 90.7 µM) | 3.1 (≈ 5.62 µM) | .1 µg/mL (≈ 0.181 µM) | 7.5 | 18.6 | MIC [21]: 3.1 µg/mL (≈ 5.62 µM); MIC [22]: 12.5 µg/mL (≈ 22.7 µM); MIC [23]: 3.1 µg/mL (≈ 5.62 µM); Half Life Dog [24]: 8.3 m; MIC ([6]; STREPTOCOCCUS PYOGENES EES61): 3.1 µg/mL (≈ 5.62 µM); Half Life Human [26]: 10.7 m; MIC [15, 31]: 3.1 µg/mL (≈ 5.62 µM); Half Life Rat [27]: 4.5 m
5 | CCC[C@H](NC(=O)CN)C(=O)NC1CCN(c2nc3c(cc2F)c(=O)c(C(=O)O)cn3-c2ccc(F)cc2F)C1 (stereo partly shown) [Example 52] |  |  |  |  |  |  |  |  |  |  |  |  |  |  |  |  |  |  |  |  | Solubility pH 7.4 [29]: 0.08 mg/ml; Water Solubility [29]: 6.89 mg/mL; AUC (0-32h) [30]: 13.9
